Source: patent publication US12060347B2 (BRISTOL-MYERS SQUIBB COMPANY, priority 2016, dated 2024)

target: T1, human PAR4 (Homo sapiens, UniProt Q96RI0); assay: PAR4 FLIPR assay: antagonism of agonist-peptide-induced calcium mobilization in PAR4-expressing HEK293 cells; assay type: cell-based; settings: H-Ala-Phe(4-F)-[…]NH2-induced intracellular calcium mobilization, 11-point curves
T1 construct: expressed in transfected cells; host or cells: HEK293 PAR4 Clone 1.2A (BMS Arctic ID 383940)
T1 sequence (Q96RI0 18-385): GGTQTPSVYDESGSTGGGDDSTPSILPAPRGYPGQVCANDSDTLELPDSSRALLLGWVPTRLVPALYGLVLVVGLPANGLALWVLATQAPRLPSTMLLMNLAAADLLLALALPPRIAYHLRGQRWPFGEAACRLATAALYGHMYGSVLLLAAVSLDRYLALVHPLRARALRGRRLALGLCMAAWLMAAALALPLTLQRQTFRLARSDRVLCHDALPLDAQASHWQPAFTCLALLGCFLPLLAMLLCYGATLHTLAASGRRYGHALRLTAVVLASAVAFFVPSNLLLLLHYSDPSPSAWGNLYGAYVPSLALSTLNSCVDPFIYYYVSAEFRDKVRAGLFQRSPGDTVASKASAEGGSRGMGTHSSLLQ

IC50 [nM] | Compound
0.9 | COCc1cnc2c(-c3nc4ccc(OC)cc4s3)cc(Cl)cc2n1 [Example 202, 2-(7-chloro-2-(methoxymethyl)quinoxalin-5-yl)-6-methoxybenzo[d]thiazole]
1.3 | COc1cnc2c(-c3nc4cc(F)c(O[C@@H](C)[C@@H](C)OC(=O)Nc5cnnc(C)c5)cc4s3)cc(C)cc2n1 [Example 418, (2R,3S)-3-((5-fluoro-2-(2-methoxy-7-methylquinoxalin-5-yl)benzo[d]thiazol-6-yl)oxy)butan-2-yl (6-methylpyridazin-4-yl)carbamate]
59 | CCc1cnc2c(-c3cc4ccccc4o3)cc(C)cc2n1 [Example 132, 5-(benzofuran-2-yl)-2-ethyl-7-methylquinoxaline]
0.7 | COc1cnc2c(-c3nc4cc(F)c(O[C@@H](C)[C@@H](C)OC(=O)Nc5ccnc(C(=O)NCCO)c5)cc4s3)cc(C)cc2n1 [Example 451, (2R,3S)-3-((5-fluoro-2-(2-methoxy-7-methylquinoxalin-5-yl)benzo[d]thiazol-6-yl)oxy)butan-2-yl (2-((2-hydroxyethyl)carbamoyl)pyridin-4-yl)carbamate]
2.5 | COc1cnc2c(-c3nc4c(Cl)c(F)c(O[C@@H](C)[C@@H](C)OC(=O)Nc5ccncc5)cc4s3)cc(Cl)cc2c1 [Example 798, (2R,3S)-3-((4-chloro-2-(6-chloro-3-methoxyquinolin-8-yl)-5-fluorobenzo[d]thiazol-6-yl)oxy)butan-2-yl pyridin-4-ylcarbamate]
92 | COc1cnc2c(-c3nc4c(C)c(F)c(OC)cc4s3)cc(C(O)c3ccccc3)cc2n1 (stereo not drawn) [Example 245, (8-(5-fluoro-6-methoxy-4-methylbenzo[d]thiazol-2-yl)-3-methoxyquinoxalin-6-yl) (phenyl)methanol]
8 | COc1cnc2c(-c3nc4cc(F)c(O[C@@H](C)[C@@H](C)OC(=O)Nc5cnc(C)nc5)cc4s3)cc(C#N)cc2n1 [Example 825, (2R,3S)-3-((2-(7-cyano-2-methoxyquinoxalin-5-yl)-5-fluorobenzo[d]thiazol-6-yl)oxy)butan-2-yl (2-methylpyrimidin-5-yl)carbamate]
22 | COc1cnc2c(-c3nc4cc(F)c(OC[C@@H](C)OC(=O)Nc5ccnnc5)cc4s3)cc(C)cc2n1 [Example 353, (R)-1-((5-fluoro-2-(2-methoxy-7-methylquinoxalin-5-yl)benzo[d]thiazol-6-yl)oxy)propan-2-yl pyridazin-4-ylcarbamate]
3.1 | COc1cnc2c(-c3nc4c(Cl)c(F)c(O[C@@H](C)[C@@H](C)OC(=O)Nc5ccc(F)nc5)cc4s3)cc(Cl)cc2c1 [Example 797, (2R,3S)-3-((4-chloro-2-(6-chloro-3-methoxyquinolin-8-yl)-5-fluorobenzo[d]thiazol-6-yl)oxy)butan-2-yl (6-fluoropyridin-3-yl)carbamate]
5.1 | COc1cnc2c(-c3nc4cc(F)c(O[C@@H](C)[C@@H](C)OC(=O)Nc5ccc(C)nc5)cc4s3)cc(C#N)cc2n1 [Example 823, (2R,3S)-3-((2-(7-cyano-2-methoxyquinoxalin-5-yl)-5-fluorobenzo[d]thiazol-6-yl)oxy)butan-2-yl (6-methylpyridin-3-yl)carbamate]
5.3 | COc1cnc2c(-c3nc4c(C)cc(OC[C@@H](C)OC(=O)Nc5cnc(Cl)nc5)nc4s3)cc(C)cc2n1 [Example 736, (R)-1-((2-(2-methoxy-7-methylquinoxalin-5-yl)-7-methylthiazolo[5,4-b]pyridin-5-yl)oxy) propan-2-yl (2-chloropyrimidin-5-yl)carbamate]
8.6 | COc1cnc2c(-c3nc4c(C)c(F)c(OCCO)cc4s3)cc(C)cc2n1 [Example 288, 2-((5-fluoro-2-(2-methoxy-7-methylquinoxalin-5-yl)-4-methylbenzo[d]thiazol-6-yl)oxy)ethanol]
5.7 | COCc1cnc2c(-c3nc4ccc(Cl)cc4s3)cc(C)cc2n1 [Example 274, 6-chloro-2-(2-(methoxymethyl)-7-methylquinoxalin-5-yl)benzo[d]thiazole]
0.3 | COC(=O)c1ccc(NC(=O)O[C@H](C)COc2nc3sc(-c4cc(C)cc5nc(OC)cnc45)nc3cc2F)cn1 [Example 690, methyl (R)-5-((((1-((6-fluoro-2-(2-methoxy-7-methylquinoxalin-5-yl)thiazolo[5,4-b]pyridin-5-yl)oxy)propan-2-yl)oxy)carbonyl)amino)picolinate]
14 | COc1cnc2c(-c3nc4cc(F)c(O[C@@H](C)[C@@H](C)OC(=O)Nc5cnc(C(=O)NC[C@@H](C)O)nc5)nc4s3)cc(C)cc2n1 [Example 752, (2R,3S)-3-((6-fluoro-2-(2-methoxy-7-methylquinoxalin-5-yl)thiazolo[5,4-b]pyridin-5-yl)oxy)butan-2-yl (2-(((R)-2-hydroxypropyl)carbamoyl)pyrimidin-5-yl)carbamate]
2.1 | COc1cnc2c(-c3nc4cc(F)c(OC[C@@H](C)OC(=O)Nc5ccc(CO)nc5)nc4s3)cc(C)cc2n1 [Example 694, (R)-1-((6-fluoro-2-(2-methoxy-7-methylquinoxalin-5-yl)thiazolo[5,4-b]pyridin-5-yl)oxy) propan-2-yl (6-(hydroxymethyl)pyridin-3-yl)carbamate]
880 | Cc1cc(-c2cc3ccccc3[nH]2)c2ncc(OC(F)F)nc2c1 [Example 5, 2-(difluoromethoxy)-5-(1H-indol-2-yl)-7-methylquinoxaline]
36 | Cc1cc(-c2cc3ccccc3s2)c2ncc(OC(F)F)nc2c1 [Example 40, 5-(benzo[b]thiophen-2-yl)-2-(difluoromethoxy)-7-methylquinoxaline]
190 | COc1cnc2c(-c3cc4ccccc4o3)cc(C)cc2c1 [Example 177, 8-(benzofuran-2-yl)-3-methoxy-6-methylquinoline]
11 | COc1cnc2c(-c3nc4cc(F)c(O[C@H](C)COC(=O)Nc5cccnc5)cc4s3)cc(C)cc2n1 [Example 344, (R)-2-((5-fluoro-2-(2-methoxy-7-methylquinoxalin-5-yl)benzo[d]thiazol-6-yl)oxy)propyl pyridin-3-ylcarbamate]
1.5 | COc1cnc2c(-c3nc4cc(F)c(OCCOC(=O)Nc5ccc(F)nc5)cc4s3)cc(C)cc2n1 [Example 340, 2-((5-fluoro-2-(2-methoxy-7-methylquinoxalin-5-yl)benzo[d]thiazol-6-yl)oxy)ethyl (6-fluoropyridin-3-yl)carbamate]
2.6 | COc1cnc2c(-c3nc4cc(F)c(O[C@@H](C)[C@@H](C)OC(=O)Nc5ccc6[nH]c(=O)oc6c5)nc4s3)cc(C)cc2n1 [Example 708, (2R,3S)-3-((6-fluoro-2-(2-methoxy-7-methylquinoxalin-5-yl)thiazolo[5,4-b]pyridin-5-yl)oxy)butan-2-yl (2-oxo-2,3-dihydrobenzo[d]oxazol-6-yl)carbamate]
1.2 | COCc1cnc2c(-c3nc4c(C)cccc4s3)cc(C)cc2n1 [Example 261, 2-(2-(methoxymethyl)-7-methylquinoxalin-5-yl)-4-methylbenzo[d]thiazole]
6.4 | CCOc1cnc2c(-c3nc4cc(F)c(OC[C@@H](C)OC(=O)Nc5cnc(OC[C@@H](C)O)nc5)nc4s3)cc(C)cc2n1 [Example 815, (R)-1-((2-(2-ethoxy-7-methylquinoxalin-5-yl)-6-fluorothiazolo[5,4-b]pyridin-5-yl)oxy) propan-2-yl (2-((R)-2-hydroxypropoxy)pyrimidin-5-yl)carbamate]
2.6 | COc1cnc2c(-c3nc4c(Cl)c(F)c(O[C@@H](C)[C@@H](C)OC(=O)Nc5ccc(OC)nc5)cc4s3)cc(Cl)cc2c1 [Example 801, (2R,3S)-3-((4-chloro-2-(6-chloro-3-methoxyquinolin-8-yl)-5-fluorobenzo[d]thiazol-6-yl)oxy)butan-2-yl (6-methoxypyridin-3-yl)carbamate]
1.7 | COc1cnc2c(-c3nc4c(Cl)c(F)c(OC[C@@H](C)OC(=O)Nc5ccc(Br)nc5)cc4s3)cc(C)cc2n1 [Example 403, (R)-1-((4-chloro-5-fluoro-2-(2-methoxy-7-methylquinoxalin-5-yl)benzo[d]thiazol-6-yl)oxy)propan-2-yl (6-bromopyridin-3-yl)carbamate]
1.7 | COc1cnc2c(-c3nc4c(Cl)c(F)c(OCCOC(=O)Nc5ccc6[nH]c(=O)oc6c5)cc4s3)cc(C)cc2n1 [Example 333, 2((4-chloro-5-fluoro-2-(2-methoxy-7-methylquinoxalin-5-yl)benzo[d]thiazol-6-yl)oxy)ethyl (2-oxo-2,3-dihydrobenzo[d]oxazol-6-yl)carbamate]
17 | Cc1cc(-c2nc3ccccc3s2)c2ncc(OC(F)F)nc2c1 [Example 4, 2-(2-(difluoromethoxy)-7-methylquinoxalin-5-yl)benzo[d]thiazole]

Compound | IC50 [nM]
COc1cnc2c(-c3nc4cc(F)c(O[C@@H](C)[C@@H](C)OC(=O)Nc5ccnc(OCCC(C)(C)O)c5)cc4s3)cc(C)cc2n1 [Example 563, (2R,3S)-3-((5-fluoro-2-(2-methoxy-7-methylquinoxalin-5-yl)benzo[d]thiazol-6-yl)oxy)butan-2-yl (2-(3-hydroxy-3-methylbutoxy)pyridin-4-yl)carbamate] | 2.8
COc1cnc2c(-c3nc4cc(F)c(O[C@@H](C)[C@@H](C)OC(=O)Nc5cnc(OCCC(C)(C)O)nc5)nc4s3)cc(C)cc2n1 [Example 730, (2R,3S)-3-((6-fluoro-2-(2-methoxy-7-methylquinoxalin-5-yl)thiazolo[5,4-b]pyridin-5-yl)oxy)butan-2-yl (2-(3-hydroxy-3-methylbutoxy)pyrimidin-5-yl)carbamate] | 13
